{"source": "patent US9011853B2", "about": "“B7-H4 fusion proteins and methods of use thereof” (Amplimmune, Inc., priority 2009, dated 2015)", "system": "serum levels of 58 analytes", "assay": "Serum biomarker analysis, quantitative immunoassay multi-analyte profiling (Rules-Based Medicine RodentMAP v2.9), AA#80", "assay_type": "in vivo, mouse", "conditions": "serum, listed as Human LgG1 Control", "procedure": "In AA#80, serum samples were collected on Day 27, Day 34, Day 41 and Day 55 via the submandibular vein. Approximately 200 μL of blood per mouse was collected in Microtainer® serum separator tubes. Serum was removed following centrifugation and stored at <−65° C. until analysis.\nSelected serum samples were sent to Rules-Based Medicine (Austin, Tex.) for quantitative immunoassay multi-analyte profiling of serum samples, with the goal of identifying biomarkers that could be used to monitor disease progression and response to B7-H4-Ig treatment. Day 27, Day 34, and Day 41 sera from the three representative mice in the B7-H4-Ig group (tag #3332, 3334, and 3338) and three representative mice in the Synagis® group (tag #3324, 3329, and 3330) were analyzed for levels of 58 analytes using the RodentMAP v2.9 Testing Service.\nData from the Rules-Based Medicine analysis was analyzed using Microsoft Excel and GraphPad Prism software. T-tests were performed to compare the levels of each analyte in the B7-H4-Ig versus Synagis® treated samples. No correction was made for multiple comparisons. Additionally, correlation coefficients were calculated for each analyte versus disease score.", "note": "“And” between values parts separate entries of the source, which are not always exact repeats. Identical values can stand only once.", "data": [{"substance": "Synagis®: humanized monoclonal IgG antibody against the F protein of Respiratory Syncytial Virus; used as a human IgG1 isotype control [reference compound]", "values": [{"measurement": "MDC (Macrophage-Derived Chemokine)", "setting": "Day 41, LDD 21.85", "value": "1410 pg/mL and 1430 pg/mL and 1150 pg/mL"}, {"measurement": "MCP-3 (Monocyte Chemoattractant Protein-3)", "setting": "Day 41, LDD 31.36", "value": "235 pg/mL and 236 pg/mL and 242 pg/mL"}, {"measurement": "VEGF (Vescular Endotheial Cell Growth Factor)", "setting": "Day 41, LDD 38.2", "value": "150 pg/mL and 171 pg/mL and 212 pg/mL"}, {"measurement": "IP-10 (Inducible Protein-10)", "setting": "Day 41, LDD 40.28", "value": "54.7 pg/mL and 68.1 pg/mL and 66.8 pg/mL"}, {"measurement": "LIF (Leukemia Infabitory Factor)", "setting": "Day 41, LDD 43.6", "value": "1650 pg/mL and 1580 pg/mL and 1470 pg/mL"}, {"measurement": "MCP-5 (Monocyte Chemoattractant Protein-5)", "setting": "Day 41, LDD 46.38", "value": "45.6 pg/mL and 47.4 pg/mL and 52.8 pg/mL"}, {"measurement": "SCF (Stem Cell Factor)", "setting": "Day 41, LDD 75.17", "value": "214 pg/mL and 249 pg/mL and 201 pg/mL"}, {"measurement": "MIP-1beta (Macrophage Inflammatory Protein-1beta)", "setting": "Day 41, LDD 77.65", "value": "144 pg/mL and 115 pg/mL and 152 pg/mL"}, {"measurement": "Lymphotactin", "setting": "Day 41, LDD 85.48", "value": "178 pg/mL and 183 pg/mL and 194 pg/mL"}, {"measurement": "VWF (Von Willebrand Factor)", "setting": "Day 41, LDD 98.6", "value": "131 ng/mL and 103 ng/mL and 111 ng/mL"}, {"measurement": "M-CSF (Macrophage-Colony Stimulating Factor)", "setting": "Day 27, LDD 0.01795, individual mice", "value": "6.19 ng/mL and 6.6 ng/mL and 6.59 ng/mL"}, {"measurement": "MIP-1gamma (Macrophage Inflammatory Protein-1gamma)", "setting": "Day 27, LDD 0.0736, individual mice", "value": "36.9 ng/mL and 37.1 ng/mL and 37.9 ng/mL"}, {"measurement": "OSM (Oncostatin M)", "setting": "Day 27, LDD 0.13, individual mice", "value": "<low> (2×) and 0.0103 ng/ml"}, {"measurement": "TNF-alpha (Tumor Necrosis Factor-alpha)", "setting": "Day 27, LDD 0.137, individual mice", "value": "0.0965 ng/ml and <low> (2×)"}, {"measurement": "KC/GROalpha (Melanoma Growth Stimulatory Activity Protein)", "setting": "Day 27, LDD 0.1739, individual mice", "value": "0.0804 ng/mL and 0.0795 ng/mL and 0.0633 ng/mL"}, {"measurement": "TEMP-1 (Tissue Inhibitor of Metalicproteinase Type-1)", "setting": "Day 27, LDD 0.18, individual mice", "value": "1.38 ng/mL and 1.13 ng/mL and 1.23 ng/mL"}, {"measurement": "IL-5 (Interleukin-5)", "setting": "Day 27, LDD 0.194, individual mice", "value": "0.438 ng/mL and 0.403 ng/mL and 0.264 ng/mL"}, {"measurement": "MIP-1alpha (Macrophage Inflammatory Protein-1alpha)", "setting": "Day 27, LDD 0.2255, individual mice", "value": "3.03 ng/ml (2×) and 3.32 ng/ml"}, {"measurement": "IL-7 (Interleukin-7)", "setting": "Day 27, LDD 0.309, individual mice", "value": "0.0593 ng/ml and <low> (2×)"}, {"measurement": "MIP-3beta (Macrophage Inflammatory Protein-3beta)", "setting": "Day 27, LDD 0.465, individual mice", "value": "2.89 ng/mL and 3.05 ng/mL and 2.6 ng/mL"}, {"measurement": "RANTCS (Regulation Upon Activation Normal T-Cell Expressed and Secreted)", "setting": "Day 27, LDD 0.5, individual mice", "value": "0.0826 pg/ml and <low> (2×)"}, {"measurement": "Tissue Factor", "setting": "Day 27, LDD 0.5175, individual mice", "value": "9.17 ng/ml (2×) and 10 ng/ml"}, {"measurement": "MPO (Myeloperoxidase)", "setting": "Day 27, LDD 0.95, individual mice", "value": "216 ng/mL and 191 ng/mL and 265 ng/mL"}, {"measurement": "SGOT (Serum Glutamic-Oxaloacetic Transaminase)", "setting": "Day 27, LDD 1.86, individual mice", "value": "84.6 µg/mL and 79.7 µg/mL and 75.4 µg/mL"}, {"measurement": "TPO (Thromboproletin)", "setting": "Day 27, LDD 2.66, individual mice", "value": "38.9 ng/ml (2×) and 34.2 ng/ml"}, {"measurement": "SAP (Setrum Amtyloid P)", "setting": "Day 27, LDD 5.4, individual mice", "value": "40.5 µg/mL and 34.2 µg/mL and 42.9 µg/mL"}, {"measurement": "MIP-2 (Macrophage Inflammatory Protein-2)", "setting": "Day 27, LDD 7.174, individual mice", "value": "16.1 pg/mL and 22.2 pg/mL and 23.4 pg/mL"}, {"measurement": "MMP-9 (Matrix Metalloproteinase-9)", "setting": "Day 27, LDD 10, individual mice", "value": "166 ng/mL and 177 ng/mL and 431 ng/mL"}, {"measurement": "IL-6 (Interleukin-6)", "setting": "Day 27, LDD 13.852, individual mice", "value": "6.27 pg/ml (2×) and <low>"}, {"measurement": "MCP-1 (Monocyte Chemoattractant Protein-1)", "setting": "Day 27, LDD 16.924, individual mice", "value": "74.4 pg/mL and 64.7 pg/mL and 70.5 pg/mL"}, {"measurement": "VCAM-1 (Vescular Cell Adhesion Molecule-1)", "setting": "Day 27, LDD 19, individual mice", "value": "2260 ng/mL and 2080 ng/mL and 3160 ng/mL"}, {"measurement": "MDC (Macrophage-Derived Chemokine)", "setting": "Day 27, LDD 21.85, individual mice", "value": "1250 pg/mL and 1310 pg/mL and 1070 pg/mL"}, {"measurement": "Myoglobin", "setting": "Day 27, LDD 24, individual mice", "value": "8.96 ng/mL and 11.4 ng/mL and 23.8 ng/mL"}, {"measurement": "MCP-3 (Monocyte Chemoattractant Protein-3)", "setting": "Day 27, LDD 31.36, individual mice", "value": "168 pg/mL and 149 pg/mL and 138 pg/mL"}, {"measurement": "VEGF (Vescular Endotheial Cell Growth Factor)", "setting": "Day 27, LDD 38.2, individual mice", "value": "144 pg/mL and 136 pg/mL and 139 pg/mL"}, {"measurement": "IP-10 (Inducible Protein-10)", "setting": "Day 27, LDD 40.28, individual mice", "value": "45.3 pg/mL and 52 pg/mL and 55.5 pg/mL"}, {"measurement": "LIF (Leukemia Infabitory Factor)", "setting": "Day 27, LDD 43.6, individual mice", "value": "1650 pg/mL and 1390 pg/mL and 1470 pg/mL"}, {"measurement": "MCP-5 (Monocyte Chemoattractant Protein-5)", "setting": "Day 27, LDD 46.38, individual mice", "value": "35.7 pg/mL and 37.1 pg/mL and 35.5 pg/mL"}, {"measurement": "SCF (Stem Cell Factor)", "setting": "Day 27, LDD 75.17, individual mice", "value": "226 pg/mL and 207 pg/mL and 220 pg/mL"}, {"measurement": "MIP-1beta (Macrophage Inflammatory Protein-1beta)", "setting": "Day 27, LDD 77.65, individual mice", "value": "173 pg/ml (2×) and 150 pg/ml"}, {"measurement": "Lymphotactin", "setting": "Day 27, LDD 85.48, individual mice", "value": "198 pg/mL and 178 pg/mL and 189 pg/mL"}, {"measurement": "VWF (Von Willebrand Factor)", "setting": "Day 27, LDD 98.6, individual mice", "value": "125 ng/mL and 131 ng/mL and 155 ng/mL"}]}]}
